Consider 47 compounds from patent US8440666B2, “Pyridazinone compounds and P2X7 receptor inhibitors” (Nissan Chemical Industries, Ltd., priority 2007, dated 2013).

The first experiment deals with T1, Human P2X7 (hP2X7) receptor (Homo sapiens, UniProt Q99572).
T1 construct: myc-His (from the pcDNA3.1/myc-HisA vector); expressed in transfected cells
T1 sequence (Q99572 1-595): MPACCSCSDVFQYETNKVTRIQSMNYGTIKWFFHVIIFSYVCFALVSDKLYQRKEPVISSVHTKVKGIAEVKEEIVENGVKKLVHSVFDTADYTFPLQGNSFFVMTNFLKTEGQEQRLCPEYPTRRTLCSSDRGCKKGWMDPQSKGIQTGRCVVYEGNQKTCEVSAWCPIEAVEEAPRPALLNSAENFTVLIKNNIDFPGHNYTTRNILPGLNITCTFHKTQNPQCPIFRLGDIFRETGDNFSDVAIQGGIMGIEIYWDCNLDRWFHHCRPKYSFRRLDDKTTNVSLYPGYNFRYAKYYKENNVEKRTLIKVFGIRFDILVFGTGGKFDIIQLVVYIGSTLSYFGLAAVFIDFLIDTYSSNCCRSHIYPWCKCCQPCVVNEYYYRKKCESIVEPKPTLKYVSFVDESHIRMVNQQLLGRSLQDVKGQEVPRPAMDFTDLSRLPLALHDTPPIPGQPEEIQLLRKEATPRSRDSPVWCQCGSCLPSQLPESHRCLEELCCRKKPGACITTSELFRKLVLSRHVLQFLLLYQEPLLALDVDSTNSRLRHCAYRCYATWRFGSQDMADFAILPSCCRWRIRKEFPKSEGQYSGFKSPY
In words: Dye assay: BzATP-induced Yo-Pro-1 uptake in HEK293 cells stably expressing hP2X7. The format is cell-based. Particulars: BzATP 0.1 mM, Yo-Pro-1 2 μM, 30 min pre-treatment, 90 min incubation. An excerpt:
Human P2X7 (hP2×7) was cloned from a normal human brain total RNA library by reverse transcription (using SuperScript II (Invitrogen)) and PCR (using KOD-plus-(TOYOBO)). PCR primers were designed according to hP2X7 sequence registered in GENBANK with a putative amino acid sequence consisting of 595 amino acid residues. The PCR fragments were inserted into pcDNA3.1/myc-HisA vector (Invitrogen) and sequenced for confirmation.
HEK293 cells were transfected with hP2×7/pcDNA3.1/myc-HisA by lipofection, and 1 day later, the cells were treated with 1 mg/mL G418, and resistant cells were selected by appropriately dilution. The resistant cells were cloned by reseeding at a low density.
P2X7 receptor antagonists were screened by a dye uptake assay using HEK293 cells stably expressing hP2×7. Cells were plated on a type I collagen-coated black/clear bottom 96-well plate at 20000 cells/well and a day later, treated with varying concentrations of various test compounds for 30 minutes, then treated with a dye (Yo-Pro-1) (final concentration 2 μM) and BzATP (final concentration 0.1 mM) and incubated for 90 minutes. Then, the fluorescence (indicating the BzATP-induced Yo-Pro-1 uptake mediated by the P2X7 receptor) was measured with a microplate reader (excitation wavelength: 485 nm, emission wavelength: 535 nm). The % inhibition rates were calculated and plotted against the logarithms of the concentrations to determine IC50.
A word on the IC50: it is the concentration that inhibits the measured activity by half. On to `COc1nnc(Cl)cc1C(C)NC(=O)Cn1ncc(N[C@@H]2C[C@@H]3C[C@H]([C@H]2C)C3(C)C)c(Cl)c1=O` (stereo partly shown) [compound 438], for which the IC50 amounted to 1.7 nM.
In the case of `CC(NC(=O)Cn1ncc(N[C@@H]2C[C@@H]3C[C@H]([C@H]2C)C3(C)C)c(Cl)c1=O)c1ccnnc1Cl` (stereo partly shown) [compound 439], the IC50 was 2 nM.
As for `COc1nnccc1C(C)NC(=O)Cn1ncc(N[C@@H]2C[C@@H]3C[C@H]([C@H]2C)C3(C)C)c(Cl)c1=O` (stereo partly shown) [compound 441], the IC50 came out at 1.9 nM.
As for `Cc1cc(C(C)NC(=O)Cn2ncc(N[C@@H]3C[C@@H]4C[C@H]([C@H]3C)C4(C)C)c(Cl)c2=O)c(Cl)nn1` (stereo partly shown) [compound 443], the IC50 came out at 5.6 nM.
In the case of `C[C@@H]1[C@H]2C[C@@H](C[C@H]1Nc1cnn(CC(=O)NCC3CCNC=C3S(C)(=O)=O)c(=O)c1Cl)C2(C)C` (stereo partly shown) [compound 447], the IC50 was found to be 42 nM.
On the same count and under the same terms, the value for `C[C@@H]1[C@H]2C[C@@H](C[C@H]1Nc1cnn(CC(=O)NCc3ccnc(F)c3Cl)c(=O)c1Cl)C2(C)C` [compound 448] was 14 nM; that for `CC(NC(=O)Cn1ncc(NC2CCC[C@@H]3CCCC[C@H]23)c(Cl)c1=O)c1ccncc1` (stereo partly shown) [compound 453] was 16 nM.

The same experiment, now with this note: BzATP (0.1 mM)-induced Yo-Pro-1 uptake, compounds 30 min pre-treatment, 90 min incubation.
Take `C[C@@H]1[C@H]2C[C@@H](C[C@H]1Nc1cnn(CCNCc3ccncc3)c(=O)c1Br)C2(C)C` [Synthetic Example 47, 4-Bromo-2-[2-(pyridin-4-ylmethylamino)ethyl]-5-[(1R,2R,3R,5S)-2,6,6-trimethylbicyclo[3.1.1]hept-3-ylamino]pyridazin-3(2H)-one]: the IC50 was found to be 21 nM.
Take `C[C@@H]1[C@H]2C[C@@H](C[C@H]1Nc1cnn(CC(=O)NCc3ccncc3)c(=O)c1Br)C2(C)C` [compound 9]: the IC50 turned out to be 3.5 nM.
The same measure, in the same setting: the value for `C[C@@H]1[C@H]2C[C@@H](C[C@H]1Nc1cnn(CC(=O)N[C@H](CO)c3ccccc3)c(=O)c1Cl)C2(C)C` [compound 270] was 30 nM; that for `C[C@@H]1[C@H]2C[C@@H](C[C@H]1Nc1cnn(CC(=O)N[C@@H](CO)c3ccccc3)c(=O)c1Cl)C2(C)C` [compound 271] was 14 nM.
As to `Cc1cncnc1CNC(=O)Cn1ncc(N[C@@H]2C[C@@H]3C[C@H]([C@H]2C)C3(C)C)c(Cl)c1=O` [compound 281], the IC50 was 190 nM.
With `CCC(NC(=O)Cn1ncc(N[C@@H]2C[C@@H]3C[C@H]([C@H]2C)C3(C)C)c(Cl)c1=O)c1ccnnc1` (stereo partly shown) [compound 288], the IC50 came out at 3 nM.
Regarding `Cc1cc(NC(=O)Cn2ncc(N[C@@H]3C[C@@H]4C[C@H]([C@H]3C)C4(C)C)c(Cl)c2=O)sn1` [compound 292], the IC50 is 68 nM.
Consider `C[C@@H]1[C@H]2C[C@@H](C[C@H]1Nc1cnn(CC(=O)NCc3ccnnc3)c(=O)c1Cl)C2(C)C` [compound 293], for which the IC50 came out at 3.5 nM.
On the same count and under the same terms, the value for `COc1cnccc1CNC(=O)Cn1ncc(N[C@@H]2C[C@@H]3C[C@H]([C@H]2C)C3(C)C)c(Cl)c1=O` [compound 294] was 5.4 nM.
In the case of `CCC(NC(=O)Cn1ncc(N[C@@H]2C[C@@H]3C[C@H]([C@H]2C)C3(C)C)cc1=O)c1ccncc1` (stereo partly shown) [compound 295], the IC50 is 230 nM.
On to `C[C@@H]1[C@H]2C[C@@H](C[C@H]1Nc1cnn(CCS(=O)(=O)c3ccccc3)c(=O)c1Cl)C2(C)C` [compound 308], for which the IC50 was determined as 230 nM.
For the compound `CC1(C)[C@@H]2C[C@@H](Nc3cnn(CC(=O)NCc4ccncc4)c(=O)c3Br)[C@@](C)(O)[C@H]1C2` [compound 314], the half-maximal inhibitory concentration (IC50) came to 34 nM.
Consider `O=C(Cn1ncc(NC2CCCCCCC2)c(Br)c1=O)NCc1ccncc1` [compound 321], for which the IC50 was determined as 38 nM.
As for `O=C(Cn1ncc(NC2CCCCCCCCC2)c(Br)c1=O)NCc1ccncc1` [compound 326], the IC50 came out at 160 nM.
As for `O=C(Cn1ncc(NC2CC3CC4CC(C3)C2C4)c(Br)c1=O)NCc1ccncc1` (stereo not shown) [compound 331], the half-inhibitory concentration (IC50) amounted to 19 nM.
Take `CCC(NC(=O)Cn1ncc(NC23CC4CC(CC2C4)C3)c(Br)c1=O)c1ccncc1` (stereo not shown) [compound 335]: the IC50 was 13 nM.
As to `CCC(NC(=O)Cn1ncc(NC23CC4CC(CC2C4)C3)c(Cl)c1=O)c1ccncc1` (stereo not shown) [compound 337], the IC50 came to 8.2 nM.
Regarding `Cc1cnccc1CNC(=O)Cn1ncc(NC23CC4CC(CC2C4)C3)c(Cl)c1=O` [compound 338], the IC50 was 5.3 nM.
Turning to `O=C(Cn1ncc(NC23CC4CC(CC2C4)C3)c(Cl)c1=O)NCc1ccnc(F)c1` [compound 343], the IC50 was 25 nM.
For `O=C(Cn1ncc(NC23CC4CC(CC2C4)C3)c(Br)c1=O)NCc1ccnnc1` [compound 345], the IC50 was determined as 34 nM.
With `C[C@@H](NC(=O)Cn1ncc(NC23CC4CC(CC2C4)C3)c(Cl)c1=O)c1ccncc1` [compound 347], the IC50 is 5 nM.
In the case of `CC(NC(=O)Cn1ncc(NC23CC4CC(CC2C4)C3)c(Br)c1=O)c1ccnnc1` (stereo not shown) [compound 348], the IC50 turned out to be 26 nM.
As for `CCC(NC(=O)Cn1ncc(NC23CC4CC(CC2C4)C3)c(Cl)c1=O)c1ccncn1` (stereo not shown) [compound 351], the IC50 was determined as 45 nM.
On the same count and under the same terms, the value for `CC(NC(=O)Cn1ncc(NC23CC4CC(CC2C4)C3)c(Cl)c1=O)c1ccncc1Cl` (stereo not shown) [compound 354] was 2.6 nM.
For the compound `CCC(NC(=O)Cn1ncc(NC2CCCCCCC2)c(Br)c1=O)c1ccncc1` (stereo not shown) [compound 355], the concentration for half-maximal inhibition (IC50) stood at 27 nM.
Same read-out and setting: the result for `CCC(NC(=O)Cn1ncc(N[C@@H]2C[C@@H]3C[C@@H](C3(C)C)[C@]2(C)O)c(Cl)c1=O)c1ccncc1` (stereo partly shown) [compound 360] reads 14 nM; that for `Cc1cnccc1CNC(=O)Cn1ncc(N[C@@H]2C[C@@H]3C[C@@H](C3(C)C)[C@]2(C)O)c(Cl)c1=O` [compound 361], 18 nM.
As to `CN(C)c1cnccc1CNC(=O)Cn1ncc(N[C@@H]2C[C@@H]3C[C@@H](C3(C)C)[C@]2(C)O)c(Cl)c1=O` [compound 362], the IC50 was found to be 3.1 nM.
As to `CC(NC(=O)Cn1ncc(N[C@@H]2C[C@@H]3C[C@@H](C3(C)C)[C@]2(C)O)c(Cl)c1=O)c1ccncc1Cl` (stereo partly shown) [compound 363], the IC50 turned out to be 2.8 nM.
Still for that read-out and setting: the result for `CC(NC(=O)Cn1ncc(N[C@@H]2C[C@@H]3C[C@@H](C3(C)C)[C@]2(C)O)c(Cl)c1=O)c1ccnnc1` (stereo partly shown) [compound 364] reads 3.4 nM; that for `CC(NC(=O)Cn1ncc(N[C@@H]2C[C@@H]3C[C@@H](C3(C)C)[C@]2(C)O)c(Cl)c1=O)c1ccnc(F)c1` (stereo partly shown) [compound 365], 2.7 nM; that for `CN(C)c1cnccc1CNC(=O)Cn1ncc(NC23CC4CC(CC(C4)C2)C3)c(Cl)c1=O` [compound 366], 2.6 nM.
On the same count and under the same terms, the value for `CC(NC(=O)Cn1ncc(NC23CC4CC(CC(C4)C2)C3)c(Cl)c1=O)c1ccnnc1` (stereo not shown) [compound 367] was 3 nM; that for `C[C@@H](NC(=O)Cn1ncc(NC2C3CC4CC(C3)CC2C4)c(Cl)c1=O)c1ccncc1` (stereo partly shown) [compound 368] was 2.6 nM; that for `C[C@@H](NC(=O)Cn1ncc(NC2C3CCCC2CCC3)c(Cl)c1=O)c1ccncc1` (stereo partly shown) [compound 369] was 2.1 nM.
For the compound `CC(NC(=O)Cn1ncc(NC2C3CCCC2CCC3)c(Br)c1=O)c1ccnnc1` (stereo not shown) [compound 372], the half-inhibitory concentration (IC50) is 3.2 nM.
For the compound `CN(C)c1cnccc1CNC(=O)Cn1ncc(NC2C3CCCC2CCC3)c(Cl)c1=O` (stereo not shown) [compound 373], the IC50 turned out to be 2.8 nM.
Turning to `CC(NC(=O)Cn1ncc(NC2C3CCCC2CCC3)c(Cl)c1=O)c1ccncn1` (stereo not shown) [compound 374], the IC50 is 6 nM.
As to `CC(NC(=O)Cn1ncc(NC2C3CCCC2CCC3)c(Cl)c1=O)c1ccnnc1` (stereo not shown) [compound 376], the IC50 is 2.7 nM.
Consider `CC(NC(=O)Cn1ncc(NC2C3CCCC2CCC3)c(Cl)c1=O)c1ccnc(F)c1` (stereo not shown) [compound 377], for which the IC50 turned out to be 2.3 nM.

For a further experiment, the system named is IL-1β in supernatants of peripheral blood mononuclear cells. Briefly: IL-1β assay: BzATP- or ATP-induced IL-1β release from LPS-treated human peripheral blood mononuclear cells. The experiment is classed as cell-based. Particulars: 2 h; IL-1β in supernatants of LPS-treated human PBMC; BzATP (1 mM) or ATP (5 mM), 120 min. On the procedure: Human whole blood from healthy volunteers was diluted with equal volume of saline and peripheral blood mononuclear cells were collected by using a Limphoprep tube (Daiichi Pure Chemicals), washed with physiological saline and seeded onto a 96-well plate with a medium containing 1-10 ng/mL LPS (SIGMA). 30 minutes later, the cells were treated with varying concentrations of various compounds and incubated for 30 minutes. Then, the cells were treated with BzATP (final concentration 1 mM) or ATP (final concentration 5 mM) and incubated for 120 minutes. The cells were centrifugated to collect supernatents, and the concentration of IL-1β in supernatants were determined by IL-1β HTRF kit (CIS biointernational). The % inhibition rates were calculated and plotted against the logarithms of the concentrations to determine IC50.
Take `C[C@@H]1[C@H]2C[C@@H](C[C@H]1Nc1cnn(CCNCc3ccncc3)c(=O)c1Br)C2(C)C` [Synthetic Example 47, 4-Bromo-2-[2-(pyridin-4-ylmethylamino)ethyl]-5-[(1R,2R,3R,5S)-2,6,6-trimethylbicyclo[3.1.1]hept-3-ylamino]pyridazin-3(2H)-one]: the IC50 was found to be 61 nM.
Turning to `C[C@@H]1[C@H]2C[C@@H](C[C@H]1Nc1cnn(CC(=O)NCc3ccncc3)c(=O)c1Br)C2(C)C` [compound 9], the IC50 worked out at 47 nM.
